Assay results published in PubChem BioAssay (NCI).
“And” between values parts separate entries of the source, which are not always exact repeats. Identical values can stand only once.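 Results reflect a 48-hour exposure of cells in 96-well plates to compound at five concentrations. GI50: concentration for 50% inhibition of growth. The concentration for full growth arrest is given as TGI.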

Legend:
Test in all cases: NCI-60 cell line screen, 48 h
SW-620 colon = tested on: SW-620 colon
IGROV1 ovarian = tested on: IGROV1 ovarian
HCC-2998 colon = tested on: HCC-2998 colon
CAKI-1 renal = tested on: CAKI-1 renal
OVCAR-3 ovarian = tested on: OVCAR-3 ovarian
OVCAR-8 ovarian = tested on: OVCAR-8 ovarian
PC-3 prostate = tested on: PC-3 prostate
RXF 393 renal = tested on: RXF 393 renal
UO-31 renal = tested on: UO-31 renal
NCI-H226 lung = tested on: NCI-H226 lung

SMILES	TGI (SW-620 colon)	TGI (IGROV1 ovarian)	TGI (HCC-2998 colon) [µM]	TGI (CAKI-1 renal) [µM]	TGI (OVCAR-3 ovarian)	TGI (OVCAR-8 ovarian) [µM]	TGI (PC-3 prostate)	TGI (RXF 393 renal) [µM]	TGI (UO-31 renal) [µM]	TGI (NCI-H226 lung) [µM]	GI50 (SW-620 colon) [µM]	GI50 (IGROV1 ovarian) [µM]	GI50 (HCC-2998 colon) [µM]	GI50 (CAKI-1 renal) [nM]	GI50 (OVCAR-3 ovarian) [µM]	GI50 (OVCAR-8 ovarian) [µM]	GI50 (PC-3 prostate) [µM]	GI50 (RXF 393 renal) [µM]	GI50 (UO-31 renal) [µM]	GI50 (NCI-H226 lung) [µM]
CC(=O)OC1C(C)OC(OC2C[C@](O)(C(C)=O)Cc3c(O)c4c(c(O)c32)C(=O)c2ccccc2C4=O)C(F)C1OC(C)=O (stereo partly specified)	> 100 µM	9.34 µM	16.6	1.39	9.9 µM	10.7	22.4 µM	18.9	0.567	2.86										
Cc1c(N(Cc2ccccc2)Cc2ccccc2)nc(S(C)(=O)=O)nc1S(C)(=O)=O	3.61 µM	3.21 µM	3.2	20.2	3.36 µM	3.29		3.1	24.7	25.8										
N=c1sc(N2CCOCC2)nn1CC(=O)c1ccccc1	> 100 µM	> 100 µM	> 100	> 100	> 100 µM	> 100	> 100 µM	> 100	> 100	> 100										
O=C1c2sccc2C(=O)c2c(CO)csc21	> 86.5 µM	17.7 µM	13.7	48.2	6.3 µM	12.4	> 32.8 µM	3.22	26.2	15										
CC(=O)Oc1c(OC(C)C)cc(=O)n2ccsc12	> 100 µM	> 100 µM	> 100	> 100	> 100 µM	> 100	> 100 µM	> 100	> 100	> 100										
O=C(Cn1c(-c2ccccc2)cc2ccccc21)N1CCOCC1	> 100 µM	> 100 µM	> 100	> 100	> 100 µM	> 100	> 100 µM	> 100	> 100	> 100										
O=C(C[N+]1(c2ccccc2)CCOCC1)c1ccccc1		> 100 µM	> 100	> 100	> 100 µM	> 100	> 100 µM	> 100	> 100	> 100										
COc1cc(CC2C(=O)OCC2Cc2ccc(OC)c(OC)c2)ccc1O (stereo unspecified)	> 100 µM	> 100 µM		> 100	> 100 µM	> 100	> 100 µM	> 100	> 100	> 100										
CCCCCCCCCCCC1=C(O)C(=O)C=C(O)C1=O	55.3 µM	20.5 µM	33	15.7	14.4 µM	4.7		54.6	14	15.4										
N/N=C(\N)SCc1ccc(N=C=S)cc1	> 100 µM	> 100 µM	> 100	> 100		> 100	> 100 µM	> 100	> 100											
NS(=O)(=O)C1CCCCC1C(=O)NNC(=O)C(=O)Nc1nc(=S)[nH][nH]1 (stereo unspecified)	> 100 µM	> 100 µM	> 100	> 100		> 100		> 100	> 100	> 100										
O=[N+]([O-])c1cccc2c1[nH]c1c(-c3ccccc3)nccc12	> 36.9 µM	11.4 µM	13.9		4.45 µM	9.32		12.4	4.22	5.33										
Nc1nc(Nc2cc(F)c(Cl)c(F)c2)cc(=O)[nH]1	> 100 µM	> 100 µM	61.5	> 100	> 100 µM	> 100	> 100 µM			> 100										
COc1ccc(-c2cc(-c3ccc(Nc4ccnc5cc(C(F)(F)F)ccc45)cc3)nc(N)c2C#N)c2ccccc12	> 100 µM		> 100	> 100	> 100 µM		> 100 µM	> 100	> 100											
COc1ccc(Sc2ccccc2[N+](=O)[O-])cc1	> 100 µM	> 100 µM	62.1		58.9 µM	> 100		78.7	> 100	45.8										
CCCCN1/C(=N/Nc2n[nH]c(=O)c3ccccc23)SCC1c1ccc(Cl)cc1 (stereo unspecified)	53 µM	41.1 µM		77.4	37.6 µM	> 100	> 100 µM	63.1	93.3	27.5										
CSC(=NCCCN=C(NS(=O)(=O)c1ccc(Cl)cc1)SC)NS(=O)(=O)c1ccc(Cl)cc1	> 100 µM	> 100 µM	83.6	> 100	80 µM	> 100	35.2 µM		40.5											
CC1SCCc2nc3ccccc3n21 (stereo unspecified)	> 100 µM	> 100 µM	> 100	> 100	> 100 µM	> 100	> 100 µM	> 100	> 100	> 100										
Cc1cc(N(CCCl)CCCl)ccc1/C=N\NC(=O)c1cccnc1	> 100 µM	> 100 µM	97.6	45	79.3 µM	> 100	> 100 µM	48.6	82.7	2.8	30.3	35.9	25	5460	23.1	25.9	22.7	19.2	21.6	1.11
COC1=C(C)C(=O)C2=C(C1=O)C1C3CC4=C(C(=O)C(OC)=C(C)C4=O)C(CNC(=O)C(C)=O)N3C(C#N)C(C2)N1C (stereo unspecified)	0.297 µM and 0.125 µM	0.199 µM and 0.0948 µM		0.126	0.00533 µM and 0.0414 µM and < 0.0468 µM		0.195 µM and 0.0778 µM	0.0161					0.000219	0.00163						
Nc1nc(N)c2ncn(Cc3ccccc3)c2n1	> 100 µM	> 100 µM	> 100	> 100	> 100 µM	> 100	> 100 µM	> 100	> 100	> 100										
C[C@@H](c1ccccc1)N(CC#N)[C@H]1CCC[C@]1(O)/C=C/c1ccc2c(c1)OCO2		> 25 µM	> 25	> 25		> 25	> 25 µM	> 25	> 25	> 25										
